Assay results reported in article PMC3628991, “Synthesis and evaluation of cell-permeable biotinylated PU-H71 derivatives as tumor Hsp90 probes” (Beilstein Journal of Organic Chemistry, 2013).
“Also recorded” adds a separate entry of the source. Like-named read-outs stand apart in the source and are kept apart here.

Columns and labels:
[1] = test system: tumor cell Hsp90 complexes (SKBr3 human breast cancer lysate); assay: Hsp90 fluorescence polarization competition assay (GM-cy3B displacement) in SKBr3 cancer-cell lysate; assay type: binding; conditions: read-out: Affinity for Hsp90 (FP)
Excerpt: The fraction of tracer bound to Hsp90 was correlated to the mP value and plotted against values of competitor concentrations. The inhibitor concentration at which 50% of bound GM was displaced was obtained by fitting the data.

K562 cells = assay: Growth inhibition assay (Alamar Blue); assay type: cell-based; conditions: Homo sapiens, K562, 72 h, read-out: IC50 Growth inhibition
Excerpt: (§1) Having shown that each of the prepared biotinylated molecules retained good affinity for Hsp90, we next evaluated these compounds in two functional read-outs that together measure that the probe has entered a live cancer cell and once inside the cell, has bound to a substantial fraction of oncogenic Hsp90 molecules. Specifically, K562 is a human leukemia cell line dependent on Hsp90 for survival. Thus, in such cells, occupancy of Hsp90’s regulatory pocket by small molecules results in inhibition of its cancer-sheltering properties, leading to cell-growth inhibition associated with degradation of Hsp90-chaperoned onco-proteins. These, such as is the case for Raf-1 in K562 cells, become ubiquitinated and targeted for proteasomal degradation leading to a decrease in their steady-state levels (Figure 2a, Raf-1).
Growth inhibition assay. The effect of compounds on cell growth was evaluated with the Alamar Blue assay. In summary, K562 cells were plated at 20,000 cells/well on Costar 96-well plates. Treatment with the probes added at the indicated concentrations in triplicate wells was performed on the subsequent day and lasted for 72 h. The Alamar Blue reagent resazurin (440 μM stock) was added at the end of the treatment to result in a final concentration of 50 μM. Plates were read 6 h later by using the Analyst GT instrument (Fluorescence intensity mode, excitation 530 nm, emission 580 nm, with 560 nm dichroic mirror). Results were analyzed in SoftMax Pro. The percentage of cell growth inhibition was calculated by comparing fluorescence readings obtained from treated versus control cells, accounting for the initial cell population (time zero). The IC50 was calculated as the drug concentration that inhibits cell growth by 50%.

[2] = test system: Raf-1 (Hsp90 onco-client) in K562 cells; assay: Raf-1 steady-state levels by Western blot; assay type: cell-based, human; conditions: for Effect on Raf-1 steady-state levels (Raf-1 degradation): K562 cells, 24 h, probes at 5, 10 and 20 µM; for Cancer-cell permeability / uptake: judged from Raf-1 degradation and growth inhibition in K562 cells
Excerpt: as §1
Western blotting. The K562 cell line was purchased from the American Type Culture Collection (Manassas, VA) and cultured in Roswell Park Memorial Institute (RPMI) supplemented with 10% fetal bovine serum, 1% L-glutamine, 1% penicillin and streptomycin. Cells were plated for 24 h prior to treatment for the indicated times with DMSO (vehicle) or with the indicated compounds. Protein extracts were prepared in 50 mM Tris pH 7.4, 150 mM NaCl and 1% NP-40 lysis buffer. Protein concentrations were measured by using the BCA kit (Pierce) according to the manufacturer's instructions. Protein lysates (50 μg) were resolved by SDS-PAGE, transferred onto nitrocellulose membrane and incubated with an anti-Raf-1 antibody from rabbit (1:500, sc-133, Santa Cruz) or anti-β-actin from mouse (1:2,500, A1978, Sigma-Aldrich). Membranes were then incubated with the corresponding peroxidase-conjugated secondary antibody (1:3,000 dilution) and visualized by the ECL detection reagent (Amersham).

Hsp90 [3] = assay: Chemical precipitation (affinity purification on streptavidin beads) from K562 cell lysates; parameters: species or system human; conditions: high-salt wash, Coomassie stain, 10, 25 and 50 µM
Protocol: Having identified which compounds were capable or not of permeating live cancer cells, we next wanted to determine whether the chain length was optimal to maintain concomitant binding to Hsp90 and streptavidin, so as to allow for isolation and identification of Hsp90/onco-client complexes from cancer cells. For this purpose, K562 lysates (Figure 2b and c) were incubated with the biotinylated ligands and the complexes captured on streptavidin beads. To test for the probe’s selectivity, pull-downs were performed with increasing concentrations of biotinylated derivatives (10, 25 and 50 µM; Figure 2c). Additionally, affinity-purified complexes were washed with high-salt buffer to remove Hsp90-bound co-chaperones and client proteins (Figure 2b and c).
(§2) Chemical precipitation from cell lysates. K562 cells were sonicated in 20 mM HEPES, pH 7.3, 50 mM KCl, 5 mM MgCl2, 20 mM Na2MoO4, and 0.01% NP40 lysis buffer containing added protease inhibitors. Affinity beads were prepared by addition of the biotinylated probes to the streptavidin agarose resin (40 μL) (Thermo Scientific), which was first washed three times with the lysis buffer. […] The protein extract (500 μg) was then added to the probe-bound beads, and samples were incubated at 4 °C overnight. Following five washes with lysis buffer, the protein isolates were subjected to SDS-PAGE.

[4] = test system: Hsp90 and Hsp90/Raf-1 complexes; assay: Chemical precipitation (affinity purification on streptavidin beads) from live K562 cells; assay type: cell-based, human; conditions: for Isolation of Hsp90 from live K562 cells (band at 90 kDa, Coomassie): live K562 cells incubated 4 h, then permeabilized, streptavidin beads; for Isolation of Hsp90 in complex with onco-client protein Raf-1: live K562 cells, Coomassie and Raf-1 immunoblot
Protocol: To test for the probes’ ability to isolate Hsp90 in secondary and tertiary complexes, such as those containing onco-client proteins, affinity purifications were also performed from live K562 cancer cells (Figure 2d). In such a case, the biotinylated tool is added to live cells where the compound binds to Hsp90 in an onco-client-bound conformation, locking and preserving the endogenous Hsp90/protein complexes throughout the subsequent experimental steps (i.e., permeabilization). In contrast, when adding a biotinylated tool to cell homogenates, one may encounter two potential limitations. First, due to the dynamic nature of the Hsp90/client protein interactions, the endogenous complexes may be lost during the homogenization process and thus, pull-downs from homogenates may miss important interactors. Second, during homogenization, certain proteins may lose their well-regulated conformation and potentially aggregate. Such misfolded proteins are prone to be captured by chaperones resulting in “false positives” (i.e., nonendogenous Hsp90 client proteins). False positives increase the “background” on the affinity resin, and the higher the background, the poorer the identification of relevant endogenous Hsp90 complexes will be. Therefore, while it is true that following the addition of the biotinylated tool to cells, these are permeabilized or fixed/permeabilized and thus no longer alive, the capture of the oncogenic Hsp90 complexes takes place in the live cell.
Consequently, in live-cell experiments, cells were first incubated with the biotinylated PU-H71 derivatives to trap and maintain the onco-client complexed to Hsp90. Next, cells were ruptured into a physiological buffer containing molybdate. The purpose of this step is to release the proteins from the cell yet maintain the Hsp90/onco-client protein complexes intact. Following capture of these complexes on the streptavidin beads, complexes were applied to a denaturing gel, then probed by both Coomassie stain (Figure 2d, top panel) and immunoblot (Figure 2d, bottom panel Raf-1 blot).
Chemical precipitation from cells. K562 cells were treated with the indicated compounds for 4 h, after which cells were collected and washed three times with PBS. Protein extracts were prepared by sonicating cells in 20 mM HEPES, pH 7.3, 50 mM KCl, 5 mM MgCl2, 20 mM Na2MoO4, 0.01% NP40 lysis buffer. Streptavidin agarose beads (40 μL) (Thermo Scientific) were washed three times with the lysis buffer and added to 500 μg of the total cellular protein extract diluted in lysis buffer to a final volume of 120 μL. Samples were incubated at 4 °C for 1 h, washed five times with the lysis buffer (or high salt buffer containing 1 M NaCl added to the lysis buffer) and applied to SDS-PAGE. Gels were stained with Coomassie blue (BioRad) according to the manufacturer's instructions.

Hsp90 [5] = assay: Affinity for Hsp90 paralogues: cytosolic Hsp90; assay type: binding; conditions: paralogue comparison
Grp94 [6] = molecular target: T1, Grp94 (Homo sapiens, UniProt P14625); assay: Affinity for Hsp90 paralogues: Grp94; assay type: binding; conditions: paralogue comparison
[7] = test system: cytosolic Hsp90 versus Grp94; assay: Paralogue selectivity of affinity purification from K562 lysates (Western blot); parameters: species or system human; conditions: overnight, probes 50 µM
Protocol: as §2

Grp94 [8] = molecular target: T1, Grp94; conditions: ref Chiosis G, personal communication; cited from earlier work

T1 sequence (P14625 22-803, species assumed): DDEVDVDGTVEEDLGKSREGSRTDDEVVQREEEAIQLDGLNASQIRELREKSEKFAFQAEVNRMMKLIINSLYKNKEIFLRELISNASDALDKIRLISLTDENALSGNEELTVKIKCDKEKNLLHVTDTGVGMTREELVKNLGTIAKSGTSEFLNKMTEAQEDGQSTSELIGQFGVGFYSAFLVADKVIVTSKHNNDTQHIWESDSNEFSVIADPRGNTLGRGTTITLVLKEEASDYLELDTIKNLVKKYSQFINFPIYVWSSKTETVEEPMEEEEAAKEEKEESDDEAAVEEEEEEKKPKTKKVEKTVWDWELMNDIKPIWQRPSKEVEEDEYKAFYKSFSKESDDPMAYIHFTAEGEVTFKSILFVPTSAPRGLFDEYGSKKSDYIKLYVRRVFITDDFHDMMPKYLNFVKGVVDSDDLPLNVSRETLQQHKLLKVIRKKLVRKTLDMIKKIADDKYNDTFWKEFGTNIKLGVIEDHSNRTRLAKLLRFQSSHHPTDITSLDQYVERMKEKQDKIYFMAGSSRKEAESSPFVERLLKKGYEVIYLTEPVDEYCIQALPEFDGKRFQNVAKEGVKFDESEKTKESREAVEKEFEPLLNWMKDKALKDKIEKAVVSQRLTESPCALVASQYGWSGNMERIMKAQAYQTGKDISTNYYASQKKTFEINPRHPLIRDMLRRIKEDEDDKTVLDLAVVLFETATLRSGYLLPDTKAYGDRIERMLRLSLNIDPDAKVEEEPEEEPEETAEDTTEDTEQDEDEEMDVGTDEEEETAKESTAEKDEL

SMILES	IC50 (K562 cells; Figure 2a, Alamar Blue) [nM]	Affinity for Grp94 (Grp94 [6]) [nM]	EC50 [1] [nM]	Effect on Raf-1 steady-state levels (Raf-1 degradation) [2]	Isolation of Hsp90 from K562 lysates on streptavidin beads (Hsp90 [3])	Isolation of Hsp90 from live K562 cells (band at 90 kDa, Coomassie) [4]	Isolation of Hsp90 in complex with onco-client protein Raf-1 [4]	Affinity for Hsp90 (Hsp90 [5]) [nM]	Preference in affinity purification of cytosolic Hsp90 over Grp94 [7]	Cancer-cell permeability / uptake [2]	IC50 (K562 cells) [nM]	Binding to cytosolic and ER Hsp90 paralogues (Grp94 [8])
NCCCn1c(Sc2cc3c(cc2I)OCO3)nc2c(N)ncnc21 [1b]			26									
CC(C)N(CCCn1c(Sc2cc3c(cc2I)OCO3)nc2c(N)ncnc21)C(=O)CCOCCOCCOCCOCCNC(=O)CCCC[C@@H]1SC[C@@H]2NC(=O)N[C@@H]21 [2h]	7010	313		failed to exhibit such properties; also recorded: failed to substantially degrade Raf-1	isolated substantial amounts of Hsp90		Most efficient	137	substantial preference			
Nc1ncnc2c1nc(Sc1cc3c(cc1I)OCO3)n2CCCNC(=O)CCOCCOCCOCCOCCNC(=O)CCCC[C@@H]1SC[C@@H]2NC(=O)N[C@@H]21 [2i]	8590	226		failed to exhibit such properties; also recorded: failed to substantially degrade Raf-1	isolated substantial amounts of Hsp90		Most efficient	83	substantial preference			
CC(C)N(CCCn1c(Sc2cc3c(cc2I)OCO3)nc2c(N)ncnc21)C(=O)CCCCCNC(=O)CCCC[C@@H]1SC[C@@H]2NC(=O)N[C@@H]21 [2d]	2190			almost complete Raf-1 degradation		faint band or no band at 90 kDa						
CC(C)NCCCn1c(Sc2cc3c(cc2I)OCO3)nc2c(N)ncnc21 [1a, PU-H71]			24.5								80	binds equally well to the cytosolic and the ER paralogues
Nc1ncnc2c1nc(Sc1cc3c(cc1I)OCO3)n2CCCNC(=O)CCCCCNC(=O)CCCCCNC(=O)CCCC[C@@H]1SC[C@@H]2NC(=O)N[C@@H]21 [2g]	1130	451		almost complete Raf-1 degradation	isolated substantial amounts of Hsp90		Most efficient	45	substantial preference	substantially taken up by the cancer cell; also recorded: good permeability		

Further lines, with some results ahead:

IC50 (K562 cells; Figure 2a, Alamar Blue) [nM]	Affinity for Grp94 (Grp94 [6]) [nM]	SMILES	EC50 [1] [nM]	Effect on Raf-1 steady-state levels (Raf-1 degradation) [2]	Isolation of Hsp90 from K562 lysates on streptavidin beads (Hsp90 [3])	Isolation of Hsp90 from live K562 cells (band at 90 kDa, Coomassie) [4]	Isolation of Hsp90 in complex with onco-client protein Raf-1 [4]	Affinity for Hsp90 (Hsp90 [5]) [nM]	Preference in affinity purification of cytosolic Hsp90 over Grp94 [7]	Cancer-cell permeability / uptake [2]	IC50 (K562 cells) [nM]	Binding to cytosolic and ER Hsp90 paralogues (Grp94 [8])
2630		CC(C)N(CCCn1c(Sc2cc3c(cc2I)OCO3)nc2c(N)ncnc21)C(=O)CCCC[C@@H]1SC[C@@H]2NC(=O)N[C@@H]21 [2b]		almost complete Raf-1 degradation	unable to affinity purify Hsp90	faint band or no band at 90 kDa						
250		Nc1ncnc2c1nc(Sc1cc3c(cc1I)OCO3)n2CCCNC(=O)CCCC[C@@H]1SC[C@@H]2NC(=O)N[C@@H]21 [2c]		almost complete Raf-1 degradation	unable to affinity purify Hsp90	faint band or no band at 90 kDa						
4960	210	CC(C)N(CCCn1c(Sc2cc3c(cc2I)OCO3)nc2c(N)ncnc21)C(=O)CCCCCNC(=O)CCCCCNC(=O)CCCC[C@@H]1SC[C@@H]2NC(=O)N[C@@H]21 [2f]		failed to exhibit such properties; also recorded: to some degree	isolated substantial amounts of Hsp90		Most efficient	98	substantial preference			
5000		Nc1ncnc2c1nc(Sc1cc3c(cc1I)OCO3)n2CCCNCCOCCOCCOCCNC(=O)CCCC[C@@H]1SC[C@@H]2NC(=O)N[C@@H]21 [2a]			modest probe for affinity purifications					poor cancer-cell permeability		
1350		Nc1ncnc2c1nc(Sc1cc3c(cc1I)OCO3)n2CCCNC(=O)CCCCCNC(=O)CCCC[C@@H]1SC[C@@H]2NC(=O)N[C@@H]21 [2e]		almost complete Raf-1 degradation	unable to affinity purify Hsp90	faint band or no band at 90 kDa						
